Laboratory results taken from patent US20230265151A1, “GIP/GLP1 CO-AGONIST COMPOUNDS” (priority 2020, published 2023).
Where two headings read alike, the source gives them in different places. *1 amine or outer side, *2 acyl side, *3 side chain or, on linkers, in order; H or OH if unused. Where a SMILES comes first, the peptide text is derived from it. Side-chain parts run from the residue outwards. [ ]: non-standard residue; d: D form. The star is where a group is joined. αMePhe(2-F) = C[C@](N)(Cc1ccccc1F)C(=O)O; γGlu = O=C(O)[C@H](CCC(=O)[*:2])N[*:1]; C14 diacid = O=C(O)CCCCCCCCCCCCC(=O)*; αMeY = C[C@](N)(Cc1ccc(O)cc1)C(=O)O; αMeL = CC(C)C[C@](C)(N)C(=O)O; Orn = NCCC[C@H](N)C(=O)O; AEEA = NCCOCCOCC(=O)O; Aib = CC(C)(N)C(=O)O

Legend:
Format in all cases: cell-based
hGCGR = target: T1, hGCGR (Homo sapiens, UniProt P47871); experiment: Functional cAMP formation (HTRF) in HEK-293 clonal cells expressing hGCGR, 0.1% bovine casein, without or with 1.0% human serum albumin; conditions: 37° C., geometric mean, read-out: hGCGR EC50, nM (SEM, n)
T1 construct: expressed in transfected cells
T1 sequence (P47871 26-477): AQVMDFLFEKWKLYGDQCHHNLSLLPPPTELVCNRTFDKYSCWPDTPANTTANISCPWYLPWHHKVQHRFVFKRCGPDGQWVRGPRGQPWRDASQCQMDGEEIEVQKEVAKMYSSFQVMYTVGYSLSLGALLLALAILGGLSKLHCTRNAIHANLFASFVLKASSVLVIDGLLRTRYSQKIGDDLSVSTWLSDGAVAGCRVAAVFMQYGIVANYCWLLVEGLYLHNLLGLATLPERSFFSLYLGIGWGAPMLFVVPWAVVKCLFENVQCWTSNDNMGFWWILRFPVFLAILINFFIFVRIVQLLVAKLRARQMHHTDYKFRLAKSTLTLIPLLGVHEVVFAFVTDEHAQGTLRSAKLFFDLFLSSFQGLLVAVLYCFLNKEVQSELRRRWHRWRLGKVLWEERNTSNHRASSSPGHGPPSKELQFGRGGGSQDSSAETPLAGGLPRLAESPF
How it was run: (§1)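 Cells were stimulated with peptide for 30 min at 37° C, then intracellular cAMP was measured by competitive HTRF (665/620 nm ratio) and converted to nM using a cAMP standard curve. Relative EC50 and Emax came from four-parameter logistic fits of percent maximal response against peptide concentration.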

hGIPR = target: T2, hGIPR (Homo sapiens, UniProt P48546); experiment: Functional cAMP formation (HTRF) in HEK-293 clonal cells expressing hGIPR, 0.1% bovine casein, without or with 1.0% human serum albumin; conditions: 37° C.; for Emax: percent of maximal response to GIP(1-42)NH2, read-out: hGIPR Emax, % ± SEM; for EC50: cAMP, 0.1% bovine casein (no human serum albumin), geometric mean, read-out: hGIPR EC50, nM (SEM, n)
T2 construct: expressed in transfected cells
T2 sequence (P48546 22-466): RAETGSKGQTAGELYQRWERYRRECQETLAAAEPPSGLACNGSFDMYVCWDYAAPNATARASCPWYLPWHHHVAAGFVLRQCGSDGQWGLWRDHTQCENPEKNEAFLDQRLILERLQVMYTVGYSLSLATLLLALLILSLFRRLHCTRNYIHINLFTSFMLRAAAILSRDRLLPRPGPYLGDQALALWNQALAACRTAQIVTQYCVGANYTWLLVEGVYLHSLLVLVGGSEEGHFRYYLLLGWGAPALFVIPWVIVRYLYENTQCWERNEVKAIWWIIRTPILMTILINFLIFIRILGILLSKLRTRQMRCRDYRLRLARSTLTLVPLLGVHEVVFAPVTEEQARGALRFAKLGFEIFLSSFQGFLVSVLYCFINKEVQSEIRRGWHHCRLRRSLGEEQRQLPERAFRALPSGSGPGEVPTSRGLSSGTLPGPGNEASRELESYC
How it was run: as §1

hGLP-1R = hGLP-1R (Homo sapiens, UniProt P43220); experiment: Functional cAMP formation (HTRF) in HEK-293 clonal cells expressing hGLP-1R, 0.1% bovine casein, without or with 1.0% human serum albumin; set-up: expressed in transfected cells; conditions: 37° C.; for Emax: percent of maximal response to GLP-1(7-36)NH2, read-out: hGLP-1R Emax, % ± SEM; for EC50: geometric mean, read-out: hGLP-1R EC50, nM (SEM, n)
Sequence of hGLP-1R (P43220 24-463): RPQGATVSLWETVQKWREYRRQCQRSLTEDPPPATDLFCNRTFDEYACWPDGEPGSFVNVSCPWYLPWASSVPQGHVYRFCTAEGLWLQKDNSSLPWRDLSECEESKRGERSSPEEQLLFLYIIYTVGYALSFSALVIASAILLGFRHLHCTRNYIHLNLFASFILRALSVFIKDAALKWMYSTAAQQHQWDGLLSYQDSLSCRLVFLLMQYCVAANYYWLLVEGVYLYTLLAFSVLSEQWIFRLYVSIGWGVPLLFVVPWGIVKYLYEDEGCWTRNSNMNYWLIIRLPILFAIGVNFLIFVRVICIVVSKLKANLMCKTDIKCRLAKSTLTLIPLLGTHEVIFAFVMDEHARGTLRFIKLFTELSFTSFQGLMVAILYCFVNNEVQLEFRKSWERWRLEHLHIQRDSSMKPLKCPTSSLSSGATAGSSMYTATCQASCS
How it was run: as §1

[1] = 0.1% bovine casein and 1.0% human serum albumin
[2] = cAMP, 0.1% bovine casein (no human serum albumin)
[3] = HEK293, cAMP, 0.1% bovine casein, arithmetic mean
[4] = HEK293, 0.1% bovine casein and 1.0% human serum albumin

SMILES | EC50 (hGCGR; [1]) | EC50 (hGCGR; [2]) | Emax (hGIPR; [3]) | EC50 (hGIPR) | Emax (hGLP-1R; [3]) | Emax (hGIPR; [4]) | EC50 (hGLP-1R; [1]) | EC50 (hGLP-1R; [2]) | Emax (hGLP-1R; [4])
CC[C@H](C)[C@H](NC(=O)[C@H](CCCN)NC(=O)[C@H](CC(=O)O)NC(=O)[C@H](CC(C)C)NC(=O)[C@](C)(CC(C)C)NC(=O)[C@@H](NC(=O)[C@H](CO)NC(=O)[C@H](Cc1ccc2ccccc2c1)NC(=O)[C@H](CC(=O)O)NC(=O)[C@H](CO)NC(=O)[C@@H](NC(=O)[C@](C)(Cc1ccccc1F)NC(=O)[C@@H](NC(=O)CNC(=O)[C@H](CCC(=O)O)NC(=O)C(C)(C)NC(=O)[C@@H](N)Cc1ccc(O)cc1)[C@@H](C)O)[C@@H](C)O)[C@@H](C)CC)C(=O)N[C@@H](C)C(=O)N[C@@H](CCC(N)=O)C(=O)NC(C)(C)C(=O)N[C@@H](CCCCNC(=O)COCCOCCNC(=O)COCCOCCNC(=O)CCCCCCCCCCCCC(=O)O)C(=O)N[C@@H](Cc1ccccc1)C(=O)N[C@H](C(=O)N[C@H](CCC(=O)O)C(=O)N[C@@](C)(Cc1ccc(O)cc1)C(=O)N[C@@H](CC(C)C)C(=O)N[C@H](C(=O)N[C@@H](CCC(=O)O)C(=O)NCC(=O)NCC(=O)N1CCC[C@H]1C(=O)N[C@@H](CO)C(=O)N[C@@H](CO)C(=O)NCC(=O)N[C@@H](C)C(=O)N1CCC[C@H]1C(=O)N1CCC[C@H]1C(=O)N1CCC[C@H]1C(=O)N[C@@H](CO)C(=O)N[C@@H](CCCCNC(=O)COCCOCCNC(=O)COCCOCCNC(=O)CCCCCCCCCCCCC(=O)O)C(N)=O)[C@@H](C)CC)[C@@H](C)CC [Example 258] | > 9950 nM | > 9950 nM | 90.3% | 0.0473 nM | 94.9% | – | – | – | –
CC[C@H](C)[C@H](NC(=O)[C@H](CC(C)C)NC(=O)[C@](C)(Cc1ccc(O)cc1)NC(=O)[C@@H](CCC(=O)O)NC(=O)[C@@H](NC(=O)[C@H](Cc1ccccc1)NC(=O)[C@H](CCCCNC(=O)COCCOCCNC(=O)COCCOCCNC(=O)CC[C@H](NC(=O)CCCCCCCCCCCCC(=O)O)C(=O)O)NC(=O)C(C)(C)NC(=O)[C@H](CCC(N)=O)NC(=O)[C@H](C)NC(=O)[C@H](CCCCNC(=O)COCCOCCNC(=O)COCCOCCNC(=O)CC[C@H](NC(=O)CCCCCCCCCCCCC(=O)O)C(=O)O)NC(=O)[C@H](CCCN)NC(=O)[C@H](CC(=O)O)NC(=O)[C@H](CC(C)C)NC(=O)[C@](C)(CC(C)C)NC(=O)[C@@H](NC(=O)[C@H](CO)NC(=O)[C@H](Cc1ccc(OC)cc1)NC(=O)[C@H](CC(=O)O)NC(=O)[C@H](CO)NC(=O)[C@@H](NC(=O)[C@](C)(Cc1ccccc1F)NC(=O)[C@@H](NC(=O)CNC(=O)[C@H](CCC(=O)O)NC(=O)C(C)(C)NC(=O)[C@@H](N)Cc1ccc(O)cc1)[C@@H](C)O)[C@@H](C)O)[C@@H](C)CC)[C@@H](C)CC)C(=O)N[C@@H](CCC(=O)O)C(=O)NCC(=O)NCC(=O)N1CCC[C@H]1C(=O)N[C@@H](CO)C(=O)N[C@@H](CO)C(=O)NCC(=O)N[C@@H](C)C(=O)N1CCC[C@H]1C(=O)N1CCC[C@H]1C(=O)N1CCC[C@H]1C(=O)N[C@@H](CO)C(N)=O [Example 259] (H-Y[Aib]EGT[αMePhe(2-F)]TSDY(Me)SI[αMeL]LD[Orn]K([AEEA-AEEA-γGlu-C14 diacid])AQ[Aib]K([AEEA-AEEA-γGlu-C14 diacid])FI[dE][αMeY]LIEGGPSSGAPPPS-NH2) | > 9950 nM | > 9950 nM | 111% | 0.0198 nM | – | 66.4% | 28.9 nM | 0.362 nM | –
CC[C@H](C)[C@H](NC(=O)[C@H](CC(C)C)NC(=O)[C@](C)(Cc1ccc(O)cc1)NC(=O)[C@@H](CCC(=O)O)NC(=O)[C@@H](NC(=O)[C@H](Cc1ccccc1)NC(=O)[C@H](CCC(=O)O)NC(=O)C(C)(C)NC(=O)[C@H](CCC(N)=O)NC(=O)[C@H](C)NC(=O)[C@H](CCCCNC(=O)COCCOCCNC(=O)COCCOCCNC(=O)CC[C@H](NC(=O)CCCCCCCCCCCCC(=O)O)C(=O)O)NC(=O)[C@H](CCCN)NC(=O)[C@H](CC(=O)O)NC(=O)[C@H](CC(C)C)NC(=O)[C@](C)(CC(C)C)NC(=O)[C@@H](NC(=O)[C@H](CO)NC(=O)[C@H](Cc1ccc(OC)cc1)NC(=O)[C@H](CC(=O)O)NC(=O)[C@H](CO)NC(=O)[C@@H](NC(=O)[C@](C)(Cc1ccccc1F)NC(=O)[C@@H](NC(=O)CNC(=O)[C@H](CCC(=O)O)NC(=O)C(C)(C)NC(=O)[C@@H](N)Cc1ccc(O)cc1)[C@@H](C)O)[C@@H](C)O)[C@@H](C)CC)[C@@H](C)CC)C(=O)N[C@@H](CCC(=O)O)C(=O)NCC(=O)NCC(=O)N1CCC[C@H]1C(=O)N[C@@H](CO)C(=O)N[C@@H](CO)C(=O)NCC(=O)N[C@@H](C)C(=O)N1CCC[C@H]1C(=O)N1CCC[C@H]1C(=O)N1CCC[C@H]1C(=O)N[C@@H](CO)C(=O)N[C@@H](CCCCNC(=O)COCCOCCNC(=O)COCCOCCNC(=O)CC[C@H](NC(=O)CCCCCCCCCCCCC(=O)O)C(=O)O)C(N)=O [Example 261] | > 9950 nM | > 9950 nM | 105% | 0.025 nM | 97.9% | 75.7% | – | – | –
CC[C@H](C)[C@H](NC(=O)[C@H](CCCN)NC(=O)[C@H](CC(=O)O)NC(=O)[C@H](CC(C)C)NC(=O)[C@](C)(CC(C)C)NC(=O)[C@@H](NC(=O)[C@H](CO)NC(=O)[C@H](Cc1ccc(OC)cc1)NC(=O)[C@H](CC(=O)O)NC(=O)[C@H](CO)NC(=O)[C@@H](NC(=O)[C@](C)(Cc1ccccc1F)NC(=O)[C@@H](NC(=O)CNC(=O)[C@H](CCC(=O)O)NC(=O)C(C)(C)NC(=O)[C@@H](N)Cc1ccc(O)cc1)[C@@H](C)O)[C@@H](C)O)[C@@H](C)CC)C(=O)N[C@@H](C)C(=O)N[C@@H](CCC(N)=O)C(=O)NC(C)(C)C(=O)N[C@@H](CCC(=O)O)C(=O)N[C@@H](Cc1ccccc1)C(=O)N[C@H](C(=O)N[C@@H](CCCCNC(=O)COCCOCCNC(=O)COCCOCCNC(=O)CC[C@H](NC(=O)CCCCCCCCCCCCC(=O)O)C(=O)O)C(=O)N[C@@](C)(Cc1ccc(O)cc1)C(=O)N[C@@H](CC(C)C)C(=O)N[C@H](C(=O)N[C@@H](CCCCNC(=O)COCCOCCNC(=O)COCCOCCNC(=O)CC[C@H](NC(=O)CCCCCCCCCCCCC(=O)O)C(=O)O)C(=O)NCC(=O)NCC(=O)N1CCC[C@H]1C(=O)N[C@@H](CO)C(=O)N[C@@H](CO)C(=O)NCC(=O)N[C@@H](C)C(=O)N1CCC[C@H]1C(=O)N1CCC[C@H]1C(=O)N1CCC[C@H]1C(=O)N[C@@H](CO)C(N)=O)[C@@H](C)CC)[C@@H](C)CC [Example 262] (H-Y[Aib]EGT[αMePhe(2-F)]TSDY(Me)SI[αMeL]LD[Orn]IAQ[Aib]EFIK([AEEA-AEEA-γGlu-C14 diacid])[αMeY]LIK([AEEA-AEEA-γGlu-C14 diacid])GGPSSGAPPPS-NH2; N-terminus assumed) | > 9950 nM | > 9950 nM | 89.8% | – | 105% | 79.7% | – | – | 115%
CC[C@H](C)[C@H](NC(=O)[C@H](CCCN)NC(=O)[C@H](CC(=O)O)NC(=O)[C@H](CC(C)C)NC(=O)[C@](C)(CC(C)C)NC(=O)[C@@H](NC(=O)[C@H](CO)NC(=O)[C@H](Cc1ccc(OC)cc1)NC(=O)[C@H](CC(=O)O)NC(=O)[C@H](CO)NC(=O)[C@@H](NC(=O)[C@](C)(Cc1ccccc1F)NC(=O)[C@@H](NC(=O)CNC(=O)[C@H](CCC(=O)O)NC(=O)C(C)(C)NC(=O)[C@@H](N)Cc1ccc(O)cc1)[C@@H](C)O)[C@@H](C)O)[C@@H](C)CC)C(=O)N[C@@H](C)C(=O)N[C@@H](CCC(N)=O)C(=O)NC(C)(C)C(=O)N[C@@H](CCCCNC(=O)COCCOCCNC(=O)COCCOCCNC(=O)CC[C@H](NC(=O)CCCCCCCCCCCCC(=O)O)C(=O)O)C(=O)N[C@@H](Cc1ccccc1)C(=O)N[C@H](C(=O)N[C@H](CCC(=O)O)C(=O)N[C@@](C)(Cc1ccc(O)cc1)C(=O)N[C@@H](CC(C)C)C(=O)N[C@H](C(=O)N[C@@H](CCCCNC(=O)COCCOCCNC(=O)COCCOCCNC(=O)CC[C@H](NC(=O)CCCCCCCCCCCCC(=O)O)C(=O)O)C(=O)NCC(=O)NCC(=O)N1CCC[C@H]1C(=O)N[C@@H](CO)C(=O)N[C@@H](CO)C(=O)NCC(=O)N[C@@H](C)C(=O)N1CCC[C@H]1C(=O)N1CCC[C@H]1C(=O)N1CCC[C@H]1C(=O)N[C@@H](CO)C(N)=O)[C@@H](C)CC)[C@@H](C)CC [Example 263] | > 9950 nM | > 9950 nM | 88.6% | 0.0214 nM | 98.5% | 72.7% | 56.7 nM | 0.294 nM | 95.8%
